In ChEMBL document CHEMBL4507283, “Data for DCP probe BI-1935” (2021):
The source made the active and inactive calls.

Key:
[1] = molecular target: Tyrosine-protein kinase Lck (Homo sapiens) (UniProt P06239); conditions: Compound concentration 1000.0 nM
[2] = molecular target: Serine/threonine-protein kinase TBK1 (Homo sapiens) (UniProt Q9UHD2); conditions: Compound concentration 1000.0 nM
[3] = molecular target: Tyrosine-protein kinase FRK (Homo sapiens) (UniProt P42685); conditions: Compound concentration 1000.0 nM
[4] = molecular target: Cyclin-dependent kinase 14 (Homo sapiens) (UniProt O94921); conditions: Compound concentration 1000.0 nM
Chain of Cyclin-dependent kinase 14 (Homo sapiens) (O94921 whole entry): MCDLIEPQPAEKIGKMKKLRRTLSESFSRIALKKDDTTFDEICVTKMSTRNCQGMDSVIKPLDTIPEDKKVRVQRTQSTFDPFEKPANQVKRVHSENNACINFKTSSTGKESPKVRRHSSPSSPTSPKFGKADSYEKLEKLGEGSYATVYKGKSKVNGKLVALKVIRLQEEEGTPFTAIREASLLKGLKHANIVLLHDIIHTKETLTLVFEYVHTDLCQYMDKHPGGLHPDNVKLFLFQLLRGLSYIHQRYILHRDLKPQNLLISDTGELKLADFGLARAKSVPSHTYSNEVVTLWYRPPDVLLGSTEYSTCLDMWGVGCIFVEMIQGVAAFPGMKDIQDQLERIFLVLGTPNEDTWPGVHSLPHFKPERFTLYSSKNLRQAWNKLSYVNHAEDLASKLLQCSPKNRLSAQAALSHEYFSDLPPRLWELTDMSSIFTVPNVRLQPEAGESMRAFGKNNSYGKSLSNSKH

[5] = molecular target: Ribosomal protein S6 kinase alpha-1 (Homo sapiens) (UniProt Q15418); conditions: Compound concentration 1000.0 nM
[6] = molecular target: AP2-associated protein kinase 1 (Homo sapiens) (UniProt Q2M2I8); conditions: Compound concentration 1000.0 nM
[7] = molecular target: Nitric oxide synthase 3 (Bos taurus) (UniProt P29473); assay: ENOS_MDS Eurofins-Panlabs selectivity data (BI); conditions: Compound concentration 10.0 uM
[8] = molecular target: T1, Bifunctional epoxide hydrolase 2 (Homo sapiens, UniProt P34913); assay: Human soluble epoxide hydrolase inhibition
T1 sequence (P34913 whole entry): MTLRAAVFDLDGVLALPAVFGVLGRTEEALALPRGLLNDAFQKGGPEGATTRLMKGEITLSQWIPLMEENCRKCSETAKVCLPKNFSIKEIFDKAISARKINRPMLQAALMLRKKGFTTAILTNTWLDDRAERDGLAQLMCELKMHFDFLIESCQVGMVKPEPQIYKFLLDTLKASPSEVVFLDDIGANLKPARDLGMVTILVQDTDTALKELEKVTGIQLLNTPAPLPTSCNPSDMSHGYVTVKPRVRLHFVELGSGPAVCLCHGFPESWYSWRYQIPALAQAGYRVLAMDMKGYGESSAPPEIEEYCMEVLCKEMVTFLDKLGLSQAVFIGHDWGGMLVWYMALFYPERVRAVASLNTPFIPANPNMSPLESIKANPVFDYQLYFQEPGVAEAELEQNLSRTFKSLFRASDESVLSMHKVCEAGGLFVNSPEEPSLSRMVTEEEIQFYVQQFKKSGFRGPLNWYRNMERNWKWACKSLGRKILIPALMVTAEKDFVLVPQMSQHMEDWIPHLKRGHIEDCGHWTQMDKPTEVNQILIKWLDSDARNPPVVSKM

[9] = molecular target: Mitogen-activated protein kinase kinase kinase 2 (Homo sapiens) (UniProt Q9Y2U5); conditions: Compound concentration 1000.0 nM
[10] = molecular target: Ribosomal protein S6 kinase alpha-5 (Homo sapiens) (UniProt O75582); conditions: Compound concentration 1000.0 nM
Chain of Ribosomal protein S6 kinase alpha-5 (Homo sapiens) (O75582 whole entry, looked up, canonical isoform): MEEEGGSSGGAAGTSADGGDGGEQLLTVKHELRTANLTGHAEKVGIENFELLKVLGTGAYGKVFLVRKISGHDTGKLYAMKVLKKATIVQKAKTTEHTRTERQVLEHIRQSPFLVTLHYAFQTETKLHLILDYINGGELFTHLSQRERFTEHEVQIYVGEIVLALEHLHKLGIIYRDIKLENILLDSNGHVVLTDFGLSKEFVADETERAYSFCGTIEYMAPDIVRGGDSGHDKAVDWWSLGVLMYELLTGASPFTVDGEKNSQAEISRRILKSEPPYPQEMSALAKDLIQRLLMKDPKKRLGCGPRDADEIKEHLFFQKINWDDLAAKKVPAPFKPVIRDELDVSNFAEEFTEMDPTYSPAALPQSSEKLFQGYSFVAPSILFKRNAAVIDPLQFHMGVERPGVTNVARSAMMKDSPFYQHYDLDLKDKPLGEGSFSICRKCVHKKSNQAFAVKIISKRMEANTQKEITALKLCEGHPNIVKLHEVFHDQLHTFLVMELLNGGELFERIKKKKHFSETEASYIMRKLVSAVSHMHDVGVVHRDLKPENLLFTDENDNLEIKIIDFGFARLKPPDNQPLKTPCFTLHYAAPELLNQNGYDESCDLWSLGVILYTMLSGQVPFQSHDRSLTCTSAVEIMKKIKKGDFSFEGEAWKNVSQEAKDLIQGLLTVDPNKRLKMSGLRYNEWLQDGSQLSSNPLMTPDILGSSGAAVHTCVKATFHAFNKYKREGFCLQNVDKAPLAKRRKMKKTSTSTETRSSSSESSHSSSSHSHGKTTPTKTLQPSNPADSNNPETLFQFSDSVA

[11] = molecular target: Casein kinase I isoform alpha-like (Homo sapiens) (UniProt Q8N752); conditions: Compound concentration 1000.0 nM
[12] = test system: Tyrosine-protein kinase ABL1 (Homo sapiens), P00519 [F317L]; conditions: Compound concentration 1000.0 nM
Chain of Tyrosine-protein kinase ABL1 (Homo sapiens), P00519 [F317L] (P00519 whole entry F317L): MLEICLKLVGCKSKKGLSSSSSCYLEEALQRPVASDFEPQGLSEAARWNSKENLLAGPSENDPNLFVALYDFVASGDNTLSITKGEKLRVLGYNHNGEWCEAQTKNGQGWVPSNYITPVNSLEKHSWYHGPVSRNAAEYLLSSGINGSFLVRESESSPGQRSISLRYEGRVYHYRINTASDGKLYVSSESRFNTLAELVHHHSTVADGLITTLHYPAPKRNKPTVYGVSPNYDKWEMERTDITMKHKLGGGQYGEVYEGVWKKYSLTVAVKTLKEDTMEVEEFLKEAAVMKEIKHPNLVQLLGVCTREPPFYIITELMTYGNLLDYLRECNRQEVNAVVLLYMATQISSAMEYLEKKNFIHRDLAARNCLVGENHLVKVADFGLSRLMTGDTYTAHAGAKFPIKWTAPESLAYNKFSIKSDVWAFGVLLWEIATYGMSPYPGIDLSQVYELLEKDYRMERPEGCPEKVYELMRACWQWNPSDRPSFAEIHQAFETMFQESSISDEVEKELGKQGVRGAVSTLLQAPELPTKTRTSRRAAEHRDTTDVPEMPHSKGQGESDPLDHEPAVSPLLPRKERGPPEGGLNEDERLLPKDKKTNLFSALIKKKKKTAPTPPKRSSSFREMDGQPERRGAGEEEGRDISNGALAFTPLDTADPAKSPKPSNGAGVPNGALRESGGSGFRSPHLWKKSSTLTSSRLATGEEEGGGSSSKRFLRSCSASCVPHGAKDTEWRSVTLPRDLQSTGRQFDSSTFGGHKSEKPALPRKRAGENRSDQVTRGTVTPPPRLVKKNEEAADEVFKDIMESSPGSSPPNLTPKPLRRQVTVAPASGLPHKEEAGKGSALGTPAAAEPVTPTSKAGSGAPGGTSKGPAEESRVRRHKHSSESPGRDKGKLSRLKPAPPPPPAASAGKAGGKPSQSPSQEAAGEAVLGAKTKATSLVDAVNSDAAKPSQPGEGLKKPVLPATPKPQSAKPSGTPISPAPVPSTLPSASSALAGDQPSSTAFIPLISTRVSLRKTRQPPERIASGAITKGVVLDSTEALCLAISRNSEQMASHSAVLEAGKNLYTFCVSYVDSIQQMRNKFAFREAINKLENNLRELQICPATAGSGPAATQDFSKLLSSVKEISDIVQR

[13] = molecular target: Carbonic anhydrase 6 (Homo sapiens) (UniProt P23280); assay: CANHYDRASE Eurofins-Panlabs selectivity data (BI); conditions: Compound concentration 10.0 uM
[14] = molecular target: Phosphatidylinositol 5-phosphate 4-kinase type-2 gamma (Homo sapiens) (UniProt Q8TBX8); conditions: Compound concentration 1000.0 nM
Chain of Phosphatidylinositol 5-phosphate 4-kinase type-2 gamma (Homo sapiens) (Q8TBX8 whole entry, canonical isoform): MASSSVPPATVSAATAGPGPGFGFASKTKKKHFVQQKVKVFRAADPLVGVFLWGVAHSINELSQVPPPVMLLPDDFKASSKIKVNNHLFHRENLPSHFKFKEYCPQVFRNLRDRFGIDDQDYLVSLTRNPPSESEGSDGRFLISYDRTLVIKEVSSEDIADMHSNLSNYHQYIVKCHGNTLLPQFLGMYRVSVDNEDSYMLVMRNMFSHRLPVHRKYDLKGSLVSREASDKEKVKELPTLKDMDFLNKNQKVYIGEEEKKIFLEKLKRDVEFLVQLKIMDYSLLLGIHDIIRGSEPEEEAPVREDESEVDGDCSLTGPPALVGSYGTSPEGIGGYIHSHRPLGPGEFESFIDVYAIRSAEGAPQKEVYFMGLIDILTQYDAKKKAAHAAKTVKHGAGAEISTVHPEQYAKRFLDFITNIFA

[15] = molecular target: Phosphorylase b kinase gamma catalytic chain, skeletal muscle/heart isoform (Homo sapiens) (UniProt Q16816); conditions: Compound concentration 1000.0 nM
Chain of Phosphorylase b kinase gamma catalytic chain, skeletal muscle/heart isoform (Homo sapiens) (Q16816 whole entry, looked up, canonical isoform): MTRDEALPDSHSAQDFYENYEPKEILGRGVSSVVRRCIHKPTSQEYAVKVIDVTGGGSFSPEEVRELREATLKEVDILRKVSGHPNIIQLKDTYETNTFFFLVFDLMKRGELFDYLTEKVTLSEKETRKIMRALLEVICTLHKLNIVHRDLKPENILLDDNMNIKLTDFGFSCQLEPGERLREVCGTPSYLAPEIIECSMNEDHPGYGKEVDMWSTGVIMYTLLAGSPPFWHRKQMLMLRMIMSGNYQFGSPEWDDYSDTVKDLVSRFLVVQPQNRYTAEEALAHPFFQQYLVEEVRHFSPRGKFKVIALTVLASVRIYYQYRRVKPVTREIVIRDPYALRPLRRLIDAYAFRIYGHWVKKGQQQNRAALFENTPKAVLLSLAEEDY

[16] = molecular target: Mitogen-activated protein kinase kinase kinase 13 (Homo sapiens) (UniProt O43283); conditions: Compound concentration 1000.0 nM
[17] = molecular target: Muscarinic acetylcholine receptor M2 (Homo sapiens) (UniProt P08172); conditions: Compound concentration 10.0 uM
Chain of Muscarinic acetylcholine receptor M2 (Homo sapiens) (P08172 whole entry): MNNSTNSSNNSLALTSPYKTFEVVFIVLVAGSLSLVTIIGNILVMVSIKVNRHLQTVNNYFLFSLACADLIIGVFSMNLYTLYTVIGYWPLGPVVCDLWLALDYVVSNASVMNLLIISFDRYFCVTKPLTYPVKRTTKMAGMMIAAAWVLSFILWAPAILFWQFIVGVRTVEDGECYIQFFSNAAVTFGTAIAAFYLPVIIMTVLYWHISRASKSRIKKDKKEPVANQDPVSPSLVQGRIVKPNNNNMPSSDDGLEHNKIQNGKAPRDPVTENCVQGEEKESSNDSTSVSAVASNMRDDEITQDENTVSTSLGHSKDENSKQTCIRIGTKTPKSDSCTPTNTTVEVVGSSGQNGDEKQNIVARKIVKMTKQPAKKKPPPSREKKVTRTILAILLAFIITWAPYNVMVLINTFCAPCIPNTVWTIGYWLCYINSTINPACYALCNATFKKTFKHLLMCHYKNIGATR

[18] = molecular target: Mitogen-activated protein kinase 10 (Homo sapiens) (UniProt P53779); conditions: Compound concentration 1000.0 nM
Chain of Mitogen-activated protein kinase 10 (Homo sapiens) (P53779 whole entry): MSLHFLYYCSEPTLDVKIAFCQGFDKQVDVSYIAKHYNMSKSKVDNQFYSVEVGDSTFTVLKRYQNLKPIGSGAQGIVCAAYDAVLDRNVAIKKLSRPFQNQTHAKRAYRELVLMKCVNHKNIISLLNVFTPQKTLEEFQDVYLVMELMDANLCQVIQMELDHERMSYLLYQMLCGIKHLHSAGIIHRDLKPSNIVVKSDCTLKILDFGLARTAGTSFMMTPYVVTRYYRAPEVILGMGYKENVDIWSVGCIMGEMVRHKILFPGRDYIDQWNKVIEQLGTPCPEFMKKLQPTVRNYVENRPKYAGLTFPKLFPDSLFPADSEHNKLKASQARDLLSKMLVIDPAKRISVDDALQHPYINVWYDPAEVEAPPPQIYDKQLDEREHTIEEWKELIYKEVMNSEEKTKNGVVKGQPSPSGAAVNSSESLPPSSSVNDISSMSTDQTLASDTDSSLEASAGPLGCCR

[19] = molecular target: G protein-coupled receptor kinase 4 (Homo sapiens) (UniProt P32298); conditions: Compound concentration 1000.0 nM
[20] = molecular target: Myotonin-protein kinase (Homo sapiens) (UniProt Q09013); conditions: Compound concentration 1000.0 nM
[21] = molecular target: Inhibitor of nuclear factor kappa-B kinase subunit beta (Homo sapiens) (UniProt O14920); conditions: Compound concentration 1000.0 nM
Chain of Inhibitor of nuclear factor kappa-B kinase subunit beta (Homo sapiens) (O14920 whole entry): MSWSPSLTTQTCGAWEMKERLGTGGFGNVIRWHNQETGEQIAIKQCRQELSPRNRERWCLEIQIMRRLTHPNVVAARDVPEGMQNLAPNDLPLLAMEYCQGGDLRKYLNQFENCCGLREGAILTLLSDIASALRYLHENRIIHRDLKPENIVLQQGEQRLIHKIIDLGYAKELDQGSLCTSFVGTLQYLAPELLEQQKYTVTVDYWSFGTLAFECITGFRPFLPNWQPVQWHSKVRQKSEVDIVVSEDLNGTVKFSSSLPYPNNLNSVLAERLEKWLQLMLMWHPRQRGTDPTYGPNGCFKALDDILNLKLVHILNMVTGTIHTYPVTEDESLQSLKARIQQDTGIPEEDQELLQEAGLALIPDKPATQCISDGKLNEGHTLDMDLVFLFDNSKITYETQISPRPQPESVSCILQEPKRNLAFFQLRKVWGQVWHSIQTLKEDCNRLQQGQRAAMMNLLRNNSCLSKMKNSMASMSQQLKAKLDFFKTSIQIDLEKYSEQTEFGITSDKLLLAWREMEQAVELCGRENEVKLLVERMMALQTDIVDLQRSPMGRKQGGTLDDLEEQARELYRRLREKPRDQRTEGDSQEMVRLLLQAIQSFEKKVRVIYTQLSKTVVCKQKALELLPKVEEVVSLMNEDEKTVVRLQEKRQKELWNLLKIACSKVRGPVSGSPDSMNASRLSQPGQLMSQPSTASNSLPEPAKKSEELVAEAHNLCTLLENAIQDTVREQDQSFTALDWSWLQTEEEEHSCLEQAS

[22] = molecular target: GABA-A receptor; anion channel (Rattus norvegicus) (UniProt O09028+P15431+P18506+P18508+P19969+P20236+P23574+P23576+P28471+P28473+P30191+P62813+P63079+P63138+Q91ZM7+Q9ES14); conditions: Compound concentration 10.0 uM
[23] = molecular target: T2, Polyunsaturated fatty acid 5-lipoxygenase (Homo sapiens) (UniProt P09917); assay: 5LO Eurofins-Panlabs selectivity data (BI)
T2 sequence (whole entry): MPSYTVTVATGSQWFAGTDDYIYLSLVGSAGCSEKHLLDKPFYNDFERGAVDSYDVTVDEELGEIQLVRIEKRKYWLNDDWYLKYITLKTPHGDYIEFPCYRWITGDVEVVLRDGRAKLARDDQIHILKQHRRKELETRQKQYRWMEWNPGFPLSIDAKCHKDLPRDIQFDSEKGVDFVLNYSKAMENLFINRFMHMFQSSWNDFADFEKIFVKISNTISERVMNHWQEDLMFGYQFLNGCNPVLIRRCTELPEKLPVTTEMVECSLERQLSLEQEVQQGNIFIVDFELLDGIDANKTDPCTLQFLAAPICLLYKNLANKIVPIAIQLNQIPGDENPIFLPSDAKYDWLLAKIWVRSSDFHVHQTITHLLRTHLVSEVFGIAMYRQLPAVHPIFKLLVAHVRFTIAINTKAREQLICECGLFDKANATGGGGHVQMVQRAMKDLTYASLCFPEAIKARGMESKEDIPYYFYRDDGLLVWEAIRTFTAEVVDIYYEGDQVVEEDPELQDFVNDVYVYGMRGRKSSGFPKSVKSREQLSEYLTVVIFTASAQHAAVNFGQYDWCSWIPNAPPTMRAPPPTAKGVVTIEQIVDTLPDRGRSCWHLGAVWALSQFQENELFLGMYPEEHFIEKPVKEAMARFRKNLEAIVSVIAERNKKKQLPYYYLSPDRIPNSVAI

CCOCCn1cc(C(=O)Nc2ccc(-n3nc(-c4cccnc4)cc3C(F)(F)F)cn2)ccc1=O [BI 1935]
inactive: residual activity [1] 100% | residual activity [2] 76% | residual activity [3] 100% | residual activity [4] 100% | residual activity [5] 99% | residual activity [6] 100% | residual activity [7] 111% | residual activity [9] 94% | residual activity [10] 100% | residual activity [11] 100% | residual activity [12] 79% | residual activity [13] 96% | residual activity [14] 100% | residual activity [15] 100% | residual activity [16] 100% | inhibition [17] -3% | residual activity [18] 100% | residual activity [19] 100% | residual activity [20] 100% | residual activity [21] 100% | inhibition [22] 18.1% | residual activity ([23]; Compound concentration 0.3 uM) 99% | residual activity ([23]; Compound concentration 1.0 uM) 88% | residual activity ([23]; Compound concentration 3.0 uM) 74%
active: IC50 [8] 7 nM | residual activity ([23]; Compound concentration 10.0 uM) 27.5% | residual activity ([23]; Compound concentration 30.0 uM) 2%
